Test results published in the supplement of paper PMC10331698.
± gives the standard deviation of the averaged measurements.

Columns and labels:
Assay in all cases: LOEC (log10 uM (lowest observed effect concentration))
[1] = compound: OCCCC(F)(F)C(F)(F)C(F)(F)C(F)(F)C(F)(F)C(F)(F)C(F)(F)F [7:3 Fluorotelomer alcohol]
Method: (§1)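 BioMAP Diversity Plus panel in human primary cell co-cultures, 4 concentrations in duplicate blinded samples. Responses are log10 fold change versus DMSO control, processed with tcpl v2.1.0. A hit is called when responses at any concentration exceed the cutoff (the larger of 3*bmad or log10(1.2)); the lowest observed effect concentration (modl_ga, log10 uM) is reported for hits.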

Perfluorodecanoic acid = compound: O=C(O)C(F)(F)C(F)(F)C(F)(F)C(F)(F)C(F)(F)C(F)(F)C(F)(F)C(F)(F)C(F)(F)F [Perfluorodecanoic acid]
Method: as §1

[2] = compound: CCN(CCO)S(=O)(=O)C(F)(F)C(F)(F)C(F)(F)C(F)(F)C(F)(F)C(F)(F)C(F)(F)C(F)(F)F [N-Ethyl-N-(2-hydroxyethyl)perfluorooctanesulfonamide]
Method: as §1

[3] = compound: OCCC(F)(F)C(F)(F)C(F)(F)C(F)(F)C(F)(F)C(F)(F)F [6:2 Fluorotelomer alcohol]
Method: as §1

[4] = compound: FC(F)(F)C(F)(F)C(F)(F)C(F)(F)C(F)(F)CCI [1-Iodo-1H,1H,2H,2H-perfluoroheptane]
Method: as §1

[5] = compound: C[N+](C)(C)CCCNS(=O)(=O)C(F)(F)C(F)(F)C(F)(F)C(F)(F)C(F)(F)C(F)(F)C(F)(F)C(F)(F)F [Perfluorooctanesulfonamido ammonium iodide]
Method: as §1

[6] = compound: C=CC(=O)OCC(F)(F)C(F)(F)C(F)(F)C(F)(F)C(F)(F)C(F)(F)C(F)(F)F [1H,1H-Perfluorooctyl acrylate]
Method: as §1

[7] = compound: O=C(O)C(F)(F)C(F)(F)C(F)(F)C(F)(F)C(F)(F)C(F)(F)C(F)(F)C(F)F [9-H-Perfluorononanoic acid]
Method: as §1

[8] = compound: O=S(=O)(O)C(F)(F)C(F)(F)C(F)(F)C(F)(F)C(F)(F)C(F)(F)F [Perfluorohexanesulfonic acid]
Method: as §1

[9] = compound: OCC(F)(F)OC(F)(F)C(F)(F)OC(F)(F)CO [1H,1H,8H,8H-Perfluoro-3,6-dioxaoctane-1,8-diol]
Method: as §1

[10] = compound: O=C(O)C(F)(F)OC(F)(F)C(F)(F)OC(F)(F)F [Perfluoro-3,6-dioxaheptanoic acid]
Method: as §1

[11] = compound: O=C(O)C(F)(F)C(F)(F)C(F)(F)OC(F)(C(F)(F)F)C(F)(F)F [Perfluoro-4-isopropoxybutanoic acid]
Method: as §1

Perfluoroheptanoic acid = compound: O=C(O)C(F)(F)C(F)(F)C(F)(F)C(F)(F)C(F)(F)C(F)(F)F [Perfluoroheptanoic acid]
Method: as §1

Perfluoro-1-iodohexane = compound: FC(F)(F)C(F)(F)C(F)(F)C(F)(F)C(F)(F)C(F)(F)I [Perfluoro-1-iodohexane]
Method: as §1

Test System | LOEC (log10 uM) [1] | LOEC (log10 uM) (Perfluorodecanoic acid) | LOEC (log10 uM) [2] | LOEC (log10 uM) [3] | LOEC (log10 uM) [5] | other results
3C HLADR down | 1.54 ± 0.34 | 1.78 | 1.78 | 1.78 | – | –
3C ICAM1 down | 1.78 | 1.78 | – | 1.78 | – | –
3C MCP1 down | 1.54 ± 0.34 | 1.78 | 1.3 | 1.78 | – | –
3C MIG down | 1.78 | 1.78 | – | 1.78 | – | –
3C Proliferation down | 1.07 ± 0.32 | 1.78 | 0.573 ± 0.39 | 1.78 | 1.78 | LOEC (log10 uM) [4]: 1.78; LOEC (log10 uM) [6]: 1.78
3C SRB down | 1.3 | 1.78 | 1.07 ± 0.32 | 1.78 | 1.78 | –
3C TissueFactor down | 1.54 ± 0.34 | 1.78 | – | 1.78 | – | –
3C uPAR down | 1.78 | 1.78 | – | 1.78 | – | –
4H Eotaxin3 down | 1.54 ± 0.34 | 1.78 | 1.54 ± 0.34 | – | 1.78 | –
4H Pselectin down | 1.78 | 1.78 | 1.54 ± 0.34 | – | 1.78 | –
4H Pselectin up | – | – | – | – | – | LOEC (log10 uM) [7]: 1.78
BE3C HLADR down | 1.78 | 1.3 | 1.3 | – | 1.78 | LOEC (log10 uM) [7]: 1.07 ± 0.32
BE3C IL8 down | 1.78 | 1.3 | 1.3 | – | 1.54 ± 0.34 | –
BE3C IP10 down | 1.78 | 0.845 | 1.3 | – | 1.78 | LOEC (log10 uM) [7]: 1.78
BE3C MMP1 up | – | – | 0.845 | – | 1.78 | LOEC (log10 uM) [8]: 1.78; LOEC (log10 uM) [4]: 1.54 ± 0.34; LOEC (log10 uM) [7]: 1.78
BF4T Eotaxin3 down | 1.31 ± 0.66 | 1.3 | – | – | – | LOEC (log10 uM) [4]: 1.78; LOEC (log10 uM) [7]: 0.845
BF4T ICAM1 down | 1.78 | 1.3 | – | – | – | LOEC (log10 uM) [7]: 1.07 ± 0.32
BF4T MCP1 down | 1.54 ± 0.34 | 1.3 | – | – | – | LOEC (log10 uM) [7]: 0.573 ± 0.39
BF4T PAI1 down | 1.78 | 1.3 | – | – | – | LOEC (log10 uM) [7]: 0.845
BF4T tPA down | 1.78 | 1.3 | – | – | 1.3 | LOEC (log10 uM) [7]: 1.07 ± 0.32
BT Bcell Proliferation up | – | 1.78 | – | – | – | LOEC (log10 uM) [7]: 1.78
BT PBMCCytotoxicity down | 1.3 | – | – | 1.78 | – | –
BT PBMCCytotoxicity up | – | – | – | – | – | LOEC (log10 uM) [7]: 1.78

Test System | LOEC (log10 uM) [1] | LOEC (log10 uM) (Perfluorodecanoic acid) | LOEC (log10 uM) [2] | LOEC (log10 uM) [3] | LOEC (log10 uM) [5] | other results
BT xIL17A down | 1.3 | – | 1.3 | – | 1.78 | –
BT xIL17F down | 1.3 | – | 1.3 | – | 1.3 | LOEC (log10 uM) [6]: 1.3
BT xTNFa down | 1.3 | – | 1.3 | 1.78 | 1.54 ± 0.34 | –
CASM3C Proliferation down | 1.3 | – | 1.3 | – | – | LOEC (log10 uM) [4]: 1.54 ± 0.34
IMphg CD40 down | 1.78 | 1.78 | – | – | 1.54 ± 0.34 | LOEC (log10 uM) [9]: 1.3
IMphg CD69 down | – | 1.78 | 1.3 | – | 1.3 | –
IMphg IL8 up | – | – | 1.78 | – | – | LOEC (log10 uM) [10]: 1.78; LOEC (log10 uM) [11]: 1.78; LOEC (log10 uM) [7]: 1.78; LOEC (log10 uM) (Perfluoroheptanoic acid): 1.78
IMphg IL10 down | – | 1.78 | – | – | 1.3 | LOEC (log10 uM) [8]: 1.78; LOEC (log10 uM) [7]: 1.78
IMphg SRB down | 1.78 | 1.78 | 1.78 | – | 1.78 | –
KF3CT IP10 down | 1.54 ± 0.34 | 1.3 | 1.3 | – | 1.78 | –
KF3CT MMP9 down | 1.3 | 1.07 ± 0.32 | 1.54 ± 0.34 | – | 1.78 | –
KF3CT PAI1 down | 1.3 | 1.3 | 0.845 | – | 1.78 | –
LPS CD40 down | 1.78 | 1.78 | – | 1.78 | 1.78 | –
LPS IL1a down | – | 1.78 | 1.3 | – | 1.54 ± 0.34 | –
LPS IL8 up | – | – | – | – | – | LOEC (log10 uM) [11]: 1.54 ± 0.34; LOEC (log10 uM) [7]: 1.54 ± 0.34
LPS SRB down | 1.78 | 1.78 | 1.54 ± 0.34 | – | 1.78 | –
LPS VCAM1 down | 1.54 ± 0.34 | 1.78 | 1.78 | – | 1.78 | –
MyoF ACTA1 down | 1.78 | 1.78 | 1.3 | – | 1.3 | LOEC (log10 uM) (Perfluoro-1-iodohexane): 1.3
MyoF CollagenI down | 1.78 | 1.3 | 1.3 | – | 1.78 | LOEC (log10 uM) (Perfluoro-1-iodohexane): 1.78
MyoF CollagenIII down | 1.78 | 1.3 | 1.3 | – | 1.78 | LOEC (log10 uM) (Perfluoro-1-iodohexane): 1.78
MyoF MMP1 up | – | – | 1.3 | – | 1.78 | LOEC (log10 uM) (Perfluoro-1-iodohexane): 1.3
MyoF PAI1 down | 1.78 | 1.78 | – | – | 1.78 | LOEC (log10 uM) (Perfluoro-1-iodohexane): 1.78
MyoF SRB down | 1.78 | 1.54 ± 0.34 | 1.3 | – | 1.78 | LOEC (log10 uM) (Perfluoro-1-iodohexane): 1.3

Test System | LOEC (log10 uM) [1] | LOEC (log10 uM) (Perfluorodecanoic acid) | LOEC (log10 uM) [2] | LOEC (log10 uM) [3] | LOEC (log10 uM) [5] | other results
MyoF VCAM1 down | 1.78 | 1.54 ± 0.34 | 1.3 | – | 1.78 | LOEC (log10 uM) (Perfluoro-1-iodohexane): 1.54 ± 0.34
SAg CD40 down | 1.78 | 1.78 | 1.78 | – | 1.78 | –
SAg PBMCCytotoxicity down | 1.3 | 1.78 | 1.54 ± 0.34 | 1.78 | – | –
SAg Proliferation down | 1.3 | 1.78 | 1.3 | 1.78 | 1.78 | –
SAg SRB down | 1.78 | 1.78 | 1.3 | – | 1.78 | –
hDFCGF CollagenI down | 1.3 | – | – | 1.78 | – | –
hDFCGF ICAM1 down | 1.3 | 1.78 | – | 1.78 | – | –
hDFCGF IL8 down | 1.3 | 1.78 | – | 1.78 | 1.78 | –
hDFCGF IP10 down | 1.3 | 1.07 ± 0.32 | 1.07 ± 0.32 | – | 1.78 | LOEC (log10 uM) [4]: 1.78
hDFCGF ITAC down | 1.3 | 1.3 | 1.07 ± 0.32 | 1.78 | 1.78 | LOEC (log10 uM) [4]: 1.78; LOEC (log10 uM) [7]: 1.54 ± 0.34
hDFCGF MCP1 down | 1.3 | 1.78 | 1.3 | 1.78 | 1.78 | –
hDFCGF MCSF down | 1.3 | 1.3 | 1.07 ± 0.32 | – | – | LOEC (log10 uM) [4]: 1.78
hDFCGF MIG down | 1.3 | 1.07 ± 0.32 | 1.3 | 1.78 | – | –
hDFCGF MMP1 down | 1.3 | 1.3 | 1.78 | – | – | LOEC (log10 uM) [7]: 1.3
hDFCGF PAI1 down | 1.3 | 1.54 ± 0.34 | 1.54 ± 0.34 | 1.78 | 1.78 | –
hDFCGF Proliferation down | 0.845 | 1.3 | 0.573 ± 0.39 | 1.78 | – | LOEC (log10 uM) [4]: 1.3; LOEC (log10 uM) [6]: 1.78
hDFCGF SRB down | 1.3 | 1.78 | 0.573 ± 0.39 | 1.78 | 1.78 | –
hDFCGF SRB up | – | – | – | – | – | LOEC (log10 uM) [7]: 1.54 ± 0.34
hDFCGF TIMP1 down | 1.3 | 1.78 | – | 1.78 | – | –
hDFCGF TIMP2 down | 1.3 | 1.3 | – | 1.78 | – | –
hDFCGF VCAM1 down | 1.3 | 0.801 ± 0.71 | 1.54 ± 0.34 | 1.78 | 1.78 | LOEC (log10 uM) [4]: 1.78
